# Test results reported in patent US20040053299A1, “Regulated activation of cell-membrane receptors by metal-chelating agonists” (priority 2003, published 2004).
# Where a chain is given by its changes, count along the chain named.
# Assays:
# [1] = system: HepG2; assay: STAT-responsive luciferase reporter in HepG2 cells without transfected receptor; format: cell-based, human; settings: HepG2 transfected with STAT-responsive luciferase reporter only, no TPO receptor
# Method: (§1) International Application No. PCT/US99/30371, published as WO 00/35446 on Jun. 22, 2000, discloses that the TPO receptor can be activated by small molecule ligands of Formula (I).
# (§2) In determining the efficacy and potency of the presently invented compounds as agonists of dimeric cell-surface receptors, a luciferase reporter gene assay configured in HepG2 cells was utilized (see Tian et al., Science 1998, 281, 257-259).
# HepG2 cells were plated in 24-well plates in triplicates for overnight. The cells were then transfected with the indicated receptor construct, a GAS response element containing luciferase reporter, 8×118-TkLUC and STAT5b expression vector (a gift of Dr. James Ihle, Memphis, Tenn.) by Superfect method (QIAGEN, Valencia, Calif.) as instructed by the manufacturer. After an overnight recovery, the transfected cells were treated with 0.1% DMSO, TPO or compound of Example 4 at the indicated concentrations for 4-5 hrs. The cells were then lysed and the level of luciferase expression was measured by a plate reader.
# [2] = target: T1, human TPO receptor (Homo sapiens, UniProt P40238); assay: luciferase reporter in HepG2 cells cotransfected with human TPO receptor; format: cell-based; settings: HepG2 cotransfected with human TPO receptor expression vector and reporter
# T1 construct: expressed in transfected cells; host or cells: HepG2
# T1 sequence (P40238 26-635): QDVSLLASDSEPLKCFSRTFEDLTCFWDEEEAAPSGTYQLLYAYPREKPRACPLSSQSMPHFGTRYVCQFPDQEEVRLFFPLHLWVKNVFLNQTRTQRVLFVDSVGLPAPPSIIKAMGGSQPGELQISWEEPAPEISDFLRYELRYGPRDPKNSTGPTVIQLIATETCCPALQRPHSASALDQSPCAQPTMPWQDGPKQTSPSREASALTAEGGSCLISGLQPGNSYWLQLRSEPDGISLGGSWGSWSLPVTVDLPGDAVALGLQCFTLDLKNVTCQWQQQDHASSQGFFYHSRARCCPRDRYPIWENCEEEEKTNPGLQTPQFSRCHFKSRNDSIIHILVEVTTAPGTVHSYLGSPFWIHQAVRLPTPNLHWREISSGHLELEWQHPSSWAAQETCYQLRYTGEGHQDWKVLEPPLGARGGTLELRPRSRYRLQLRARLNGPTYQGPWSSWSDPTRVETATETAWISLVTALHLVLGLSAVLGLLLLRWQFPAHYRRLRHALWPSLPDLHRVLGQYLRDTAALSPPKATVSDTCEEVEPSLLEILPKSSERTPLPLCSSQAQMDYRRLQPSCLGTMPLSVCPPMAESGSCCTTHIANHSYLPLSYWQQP
# Description: as §1, §2
# Human Tpo receptor (hMPL) was cloned from HEL 92.1.7 cells (ATCC, Rockville, Md.) by PCR (forward primer: 5′-ACGAAGCTTAGCCAAGATGTCTCCTTGCTGGCAT-3′ and reverse primer: 5′-AGCCTCGAGTCAAGGCTGCTGCCAATAGCT-3′). The cloned full-length cDNA was confirmed by DNA sequencing analysis, then subcloned into HindIII-XhoI digested pSSF vector. The cynomolgous Tpo-R (cMPL) was cloned from bone marrow cDNA using the human 5′ and 3′ terminal coding sequences. The full-length cDNA was sequenced and subcloned into EcoRI digested pCDNA3. 1 (+) vector (Invitrogen, San Diego, Calif.). […]
# HepG2 cells were plated in 24-well plates in triplicates for overnight. […] The cells were then lysed and the level of luciferase expression was measured by a plate reader.
# [3] = target: T2, human TPO receptor H499L (Homo sapiens, UniProt P40238, H499L); assay: luciferase reporter in HepG2 cells, H499L point mutant of human TPO receptor; format: cell-based; settings: H499L point mutation in the human TPO receptor
# T2 construct: expressed in transfected cells; host or cells: HepG2
# T2 sequence (P40238 26-635 H499L): T1 sequence (P40238 26-635) with H474L
# Description: (§3) To further investigate the activity of compounds of Formula (I), cDNA clones for cynomolgous monkey TPO receptor were isolated and sequenced. […] It was clear from these experiments that the compounds of Formula I show strict specificity for the human TPO receptor, a finding also confirmed by STAT activation assays of platelets from human and cyno origin. In order to examine the region of the TPO receptor required for compound activity, a series of human/cyno TPO-R chimeric receptors were transfected into HepG2 cells and tested for their response to compounds of Formula (I). […] To investigate the role of this specific transmembrane domain mutation on the activity of compounds of Formula (I), two point mutations were constructed: a) a H499L change into the human TPO receptor transmembrane domain, creating a receptor with human extracellular and cytoplasmic domains and a cyno receptor transmembrane domain and b) a L499H change into the cyno receptor transmembrane domain creating a chimera with cyno extracellular and cytoplasmic domains and a human transmembrane domain. […] Conversely, the L499H mutation in the cyno TPO receptor allowed it to be activated by both TPO and the compounds with potencies and efficacies similar to those seen on wild type human receptor. […]
# [4] = system: cyno TPO receptor L499H; assay: luciferase reporter in HepG2 cells, L499H point mutant of cyno TPO receptor; format: cell-based, cynomolgous monkey; settings: L499H mutation in the cyno TPO receptor
# Description: as §3
substance,measurement,setting,value
"TPO: thrombopoietin, natural protein ligand of the TPO receptor","response, luciferase expression",[1],do not respond
same,"response, luciferase expression",[2],large increase in luciferase expression
same,receptor response,[3],little effect on the response
same,receptor activation,[4],activated
